# Source: patent US6599715B1, “Real time viability detection of bacterial spores” (priority 1999, dated 2003)
# System: Bacillus globigii spores
# Format: cell-based
# Conditions: relative germination; phase change monitored at 450 nm over 10 minutes; 3.6×10^8 spores per ml in 20 mM potassium phosphate buffer (pH 7.4)
# Procedure: Bacillus cultures were grown at 30° C. with moderate aeration for 7 days. Spores were harvested by centrifugation at 10,900×g for 30 minutes at 4° C. and resuspended in 200 milliliters (ml) of sterile distilled water and washed 7 to 10 times, heated to 65° C. for 15 minutes to kill any vegetative cells, and stored at 4° C. Spore populations were determined from the average of 3 serial dilution plates.
# B. globigii spores (500 microliters (μl)) were diluted to a concentration of 3.6×10^8 spores per ml in 20 millimolar (mM) potassium phosphate buffer (pH 7.4), and mixed with 500 μl of a 0.12 M solution of one or more of L-alanine, L-asparagine and D-glucose, together with DPA and other chemicals to test the effectiveness of various combinations as germinating agents. The phase change of the spores in the germinants was monitored at 450 nm over a period of 10 minutes.
row,SMILES,Percent germination
1,"O=C[C@H](O)[C@@H](O)[C@H](O)[C@H](O)CO [20 mM D-glucose, D-glucose]",7.0%
2,"O=C(O)c1cccc(C(=O)O)n1 [20 mM DPA, pyridine-2,6-dicarboxylic acid]",7.3%
3,"C[C@H](N)C(=O)O [20 mM L-alanine, L-alanine]",50.1%
4,"NC(=O)C[C@H](N)C(=O)O [20 mM L-asparagine, L-asparagine]",5.2%
